# From patent publication US10918645B2 (LIFEARC, priority 2016, dated 2021)
# Tests used:
# [1] = target: LRRK2 G2019S (Homo sapiens (Human), UniProt Q5S007, G2019S); assay: Adapta Kinase Assay (LRRK2_IC50 assay); format: biochemical; conditions: inhibition of LRRK2 G2019S
# Method: In Adapta™ Kinase Assay (LRRK2_IC50 assay): the Kinase Reaction Buffer contained 5× Kinase Buffer S (Life Technologies, PV5213) and 2 mM DTT (Life Technologies, P2325).
# The Adapta® universal kinase assay is a homogenous, fluorescent based immunoassay for the detection of ADP. In contrast to ATP depletion assays, the Adapta® assay is extremely sensitive to ADP formation such that a majority of the signal change occurs in the first 10-20% conversion of ATP to ADP. This makes the Adapta® universal kinase assay ideally suited for use with low activity kinases.
# Prepare a 1× solution of kinase reaction buffer from the 5× Kinase Buffer S stock (listed above) by adding 2 ml of 5× stock to 8 ml of H2O to make 10 ml of 1× kinase reaction buffer. To this, add 20 μl of 1 M DTT.
# Kinase reactions are performed in a 10 μl volume in low-volume 384-well plates. […] Other non—treated assay plates, while not tested, may also be suitable. The concentration of substrate in the assay is 100 μM, and the 1× kinase reaction buffer consists of 50 mM Tris-HCl pH8.5, 10 mM MgCl2, 1 mM EGTA, 0.01% Brij-35, and 2 mM DTT, plus any additional additives that may be required for a specific kinase. […] The plate is allowed to equilibrate at room temperature for at least 30 minutes before being read on a plate reader configured for Adapta™ TR-FRET.
# The data presented in this document were generated using a BMG LABTECH PHERAstar plate reader using the appropriate filters and instrument settings for Adapta™. The Test Compounds are screened in 1% DMSO (final) in the well. For 8 point titrations, 5-fold serial dilutions are conducted from the starting concentration.
# (§1) IC50 estimates were obtained using the software XLfit (IDBS Inc.).
# [2] = target: JAK2 (Homo sapiens (Human), UniProt O60674); assay: LANCE Kinase Assay (JAK2_IC50 selectivity assay); format: biochemical
# Sequence of JAK2 (O60674 whole entry): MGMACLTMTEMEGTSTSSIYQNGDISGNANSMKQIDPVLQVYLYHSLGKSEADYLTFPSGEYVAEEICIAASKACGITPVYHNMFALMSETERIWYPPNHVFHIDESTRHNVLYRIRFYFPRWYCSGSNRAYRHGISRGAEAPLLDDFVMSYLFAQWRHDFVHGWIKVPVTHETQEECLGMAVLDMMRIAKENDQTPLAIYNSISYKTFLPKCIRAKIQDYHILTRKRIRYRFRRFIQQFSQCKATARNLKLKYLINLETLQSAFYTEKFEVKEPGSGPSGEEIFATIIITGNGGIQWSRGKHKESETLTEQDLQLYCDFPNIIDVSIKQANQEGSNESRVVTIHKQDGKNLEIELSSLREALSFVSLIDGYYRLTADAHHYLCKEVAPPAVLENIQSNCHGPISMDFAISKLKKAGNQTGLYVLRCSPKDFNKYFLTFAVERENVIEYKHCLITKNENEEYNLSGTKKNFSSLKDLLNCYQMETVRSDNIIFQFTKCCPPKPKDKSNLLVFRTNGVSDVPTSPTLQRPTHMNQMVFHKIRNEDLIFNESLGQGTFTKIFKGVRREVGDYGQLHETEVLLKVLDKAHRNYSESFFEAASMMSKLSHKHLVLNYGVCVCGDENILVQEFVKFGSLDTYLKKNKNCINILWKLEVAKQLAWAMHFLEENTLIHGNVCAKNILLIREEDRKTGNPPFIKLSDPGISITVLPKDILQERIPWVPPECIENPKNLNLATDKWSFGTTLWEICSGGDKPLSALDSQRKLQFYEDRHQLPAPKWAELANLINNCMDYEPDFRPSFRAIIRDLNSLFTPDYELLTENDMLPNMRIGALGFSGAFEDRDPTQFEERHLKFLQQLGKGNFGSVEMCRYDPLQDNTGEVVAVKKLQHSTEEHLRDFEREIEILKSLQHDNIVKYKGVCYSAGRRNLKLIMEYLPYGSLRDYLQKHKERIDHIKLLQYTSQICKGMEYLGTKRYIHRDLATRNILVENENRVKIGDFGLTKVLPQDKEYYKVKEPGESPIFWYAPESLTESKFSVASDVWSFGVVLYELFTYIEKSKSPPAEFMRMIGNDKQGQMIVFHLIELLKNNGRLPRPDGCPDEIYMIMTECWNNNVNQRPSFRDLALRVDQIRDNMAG
# Description: In LANCE® Kinase Assay (JAK2_IC50 selectivity assay): JAK2 (Invitrogen, Cat. No PV4288), ATP (Sigma, Cat. No. A7699-1G), DMSO (Sigma, Cat. No. D2650), DTT (Sigma, Cat. No. 43815), LANCE Ultra ULight™-JAK-1 peptide (Perkin Elmer, Cat. No. TRF0121), LANCE Eu-W1024 Anti-phosphotyrosine (PT66) (Perkin Elmer, Cat. No. AD0069), LANCE™ Detection Buffer (Perkin Elmer, Cat. No. CR97-100), Tofacitinib (PharmaBlock Sciences(Nanjing), Inc, Cat. No. PBN2011586-01); Equipments: Envision (Perkin Elmer), Bravo (Agilent); Consumables: 384 well Intermediate plate (Greiner, Cat. No. 781280), 384 well assay plate (Perkin Elmer, Cat. No. 6007299),
# The assay involves two steps, the enzymatic step and the detection step with HTRF reagents. Step 1: During the enzymatic step the substrate-biotin is incubated with the kinase of interest. ATP is added to start the reaction. Step 2: The detection reagent catches the phosphorylated substrate and the resulting TR-FRET is proportional to the phosphorylation level.
# Compound Preparation: Dissolve the test compounds into 30 mM DMSO solution and put them in nitrogen hood at room temperature for long term storage; Dilute the 30 mM compound in DMSO with 3-fold factor, total 11 concentrations; Aspirate 1 μl compound and then dilute them in 25 folds with kinase buffer. Mix well and balance 30 minutes at room temperature.
# Kinase Reaction: Transfer 2.5 μl compounds in kinase buffer (4×) into assay plate by Agilent Bravo. Spin the plate; Transfer 5 μl enzyme mixture into the assay plate by using Eppendorf electronic multi-channel pipette. Spin the plate; Incubate the assay plate for 20 minutes at room temperature (23° C.); Add 2.5 μl kinase buffer with ATP into the assay plate by using Multidrop. Spin and seal the plate; Incubate the assay plate for 90 minutes at room temperature (23° C.).
# Stop Reaction: Transfer 10 μl detection reagent (2 nM LANCE Eu-W1024 Anti-phosphotyrosine) into the assay plate by using Eppendorf electronic multi-channel pipette. Spin and seal the plate; Incubate the assay plate at room temperature (23° C.) for 60 minutes.
# Detection and Read: The excitation wavelength is 340 nm, the primary emission wavelength is 615 nm and the secondary emission wavelength is 665 nm (for Cryptate and Ulight, respectively). Read the plate with EnVision to get the readout of both wavelengths; Calculate the ratio of 665 nm/615 nm.
# as §1
# Sequence of LRRK2 G2019S (Q5S007 970-2527 G2019S): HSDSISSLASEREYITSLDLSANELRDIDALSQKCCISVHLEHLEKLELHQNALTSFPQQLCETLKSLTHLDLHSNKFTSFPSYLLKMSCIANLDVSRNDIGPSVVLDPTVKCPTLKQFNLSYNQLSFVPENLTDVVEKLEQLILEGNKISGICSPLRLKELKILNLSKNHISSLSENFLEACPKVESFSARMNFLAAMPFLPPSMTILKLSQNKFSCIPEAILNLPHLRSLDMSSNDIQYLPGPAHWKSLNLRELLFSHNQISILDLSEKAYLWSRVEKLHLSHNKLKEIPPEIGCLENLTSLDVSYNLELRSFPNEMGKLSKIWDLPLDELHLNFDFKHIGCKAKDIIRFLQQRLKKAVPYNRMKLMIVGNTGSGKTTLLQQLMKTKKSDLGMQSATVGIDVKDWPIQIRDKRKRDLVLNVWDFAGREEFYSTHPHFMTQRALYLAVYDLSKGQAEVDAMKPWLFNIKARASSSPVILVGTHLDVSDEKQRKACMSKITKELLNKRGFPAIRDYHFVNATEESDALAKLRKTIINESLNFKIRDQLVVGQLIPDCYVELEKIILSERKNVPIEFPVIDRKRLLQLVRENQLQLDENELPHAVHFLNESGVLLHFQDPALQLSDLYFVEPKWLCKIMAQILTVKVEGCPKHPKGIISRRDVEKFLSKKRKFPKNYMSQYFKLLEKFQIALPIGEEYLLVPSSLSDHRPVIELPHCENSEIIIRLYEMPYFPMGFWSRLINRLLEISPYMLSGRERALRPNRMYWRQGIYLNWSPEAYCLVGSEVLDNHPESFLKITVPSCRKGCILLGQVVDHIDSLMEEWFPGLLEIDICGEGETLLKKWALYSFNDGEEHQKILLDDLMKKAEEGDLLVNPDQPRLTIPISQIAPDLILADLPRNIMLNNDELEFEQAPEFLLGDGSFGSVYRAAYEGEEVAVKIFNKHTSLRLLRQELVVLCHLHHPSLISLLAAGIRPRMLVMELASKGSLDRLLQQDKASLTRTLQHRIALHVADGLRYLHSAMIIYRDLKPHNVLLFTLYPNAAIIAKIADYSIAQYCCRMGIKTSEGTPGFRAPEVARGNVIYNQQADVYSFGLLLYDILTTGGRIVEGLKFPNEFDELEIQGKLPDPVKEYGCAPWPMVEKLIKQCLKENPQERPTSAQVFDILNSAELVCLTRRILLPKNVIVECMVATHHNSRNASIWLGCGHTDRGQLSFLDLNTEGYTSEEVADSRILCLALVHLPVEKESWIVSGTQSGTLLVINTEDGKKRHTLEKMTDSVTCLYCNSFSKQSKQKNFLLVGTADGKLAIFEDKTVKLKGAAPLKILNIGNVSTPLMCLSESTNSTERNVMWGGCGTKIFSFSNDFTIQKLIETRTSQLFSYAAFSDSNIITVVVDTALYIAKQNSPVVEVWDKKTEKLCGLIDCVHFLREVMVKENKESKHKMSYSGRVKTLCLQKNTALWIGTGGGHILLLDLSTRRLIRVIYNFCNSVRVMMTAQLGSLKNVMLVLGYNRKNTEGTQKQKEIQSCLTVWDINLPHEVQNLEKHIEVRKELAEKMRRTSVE
IC50 [1],IC50 [2],Compound
40 nM,4600 nM,"CC(C)n1cc2c(n1)CN(C1CCN(C)CC1)c1nccc3[nH]nc-2c13 [Example 81, 2-isopropyl-9-(1-methylpiperidin-4-yl)-2,5,9,10-tetrahydro-1,2,4,5,8,9-hexaazabenzo[cd]cyclopenta[h]azulene]"
820 nM,–,"CCN1CCN(C2CCOCC2)c2nccc3[nH]nc1c23 [Example 94, 9-ethyl-6-(tetrahydro-2H-pyran-4-yl)-6,7,8,9-tetrahydro-2H-1,2,5,6,9-pentaazabenzo[cd]azulene]"
71 nM,2100 nM,"CN1Cc2ccccc2-c2n[nH]c3ccnc1c23 [Example 45, 4-methyl-5,11-dihydro-4H-3,4,10,11-tetraazadibenzo[cd,h]azulene]"
3000 nM,–,"CN1CCCc2n[nH]c3ccnc1c23 [Example 16, 6-methyl-6,7,8,9-tetrahydro-2H-1,2,5,6-tetraazabenzo[cd]azulene]"
50 nM,2400 nM,"CC(C)n1cc2c(n1)CN(C1CCOCC1)c1nccc3[nH]nc-2c13 [Example 74, 2-isopropyl-9-(tetrahydro-2H-pyran-4-yl)-2,5,9,10-tetrahydro-1,2,4,5,8,9-hexaazabenzo[cd]cyclopenta[h]azulene]"
29 nM,3000 nM,"CCn1cc2c(n1)CN(C1CCN(C(C)C)CC1)c1nccc3[nH]nc-2c13 [Example 86, 2-ethyl-9-(1-isopropylpiperidin-4-yl)-2,5,9,10-tetrahydro-1,2,4,5,8,9-hexaazabenzo[cd]cyclopenta[h]azulene]"
15 nM,660 nM,"CCn1cc2c(n1)CN(C1CCOCC1)c1nccc3[nH]nc-2c13 [Example 72, 2-ethyl-9-(tetrahydro-2H-pyran-4-yl)-2,5,9,10-tetrahydro-1,2,4,5,8,9-hexaazabenzo[cd]cyclopenta[h]azulene]"
39 nM,–,"CC(C)N1CCC(N2Cc3nn(C)cc3-c3n[nH]c4ccnc2c34)CC1 [Example 82, 9-(1-isopropylpiperidin-4-yl)-2-methyl-2,5,9,10-tetrahydro-1,2,4,5,8,9-hexaazabenzo[cd]cyclopenta[h]azulene]"
31 nM,5400 nM,"CC(C)N1CCC(N2Cc3nn(C(C)C)cc3-c3n[nH]c4ccnc2c34)CC1 [Example 88, 2-isopropyl-9-(1-isopropylpiperidin-4-yl)-2,5,9,10-tetrahydro-1,2,4,5,8,9-hexaazabenzo[cd]cyclopenta[h]azulene]"
170 nM,> 30000 nM,"CN1CCN(C2CCOCC2)c2nccc3[nH]nc1c23 [Example 93, 9-methyl-6-(tetrahydro-2H-pyran-4-yl)-6,7,8,9-tetrahydro-2H-1,2,5,6,9-pentaazabenzo[cd]azulene]"
450 nM,–,"CC(C)CN1CCCc2n[nH]c3ccnc1c23 [Example 20, 6-isobutyl-6,7,8,9-tetrahydro-2H-1,2,5,6-tetraazabenzo[cd]azulene]"
7 nM,–,"Cn1ncc2c1C(=O)N(C1CCOCC1)c1nccc3[nH]nc-2c13 [Example 67, 1-methyl-9-(tetrahydro-2H-pyran-4-yl)-5,9-dihydro-1,2,4,5,8,9-hexaazabenzo[cd]cyclopenta[h]azulen-10(1H)-one]"
4 nM,–,"O=C1c2n[nH]cc2-c2n[nH]c3ccnc(c23)N1C1CCOCC1 [Example 65, 9-(tetrahydro-2H-pyran-4-yl)-5,9-dihydro-1,2,4,5,8,9-hexaazabenzo[cd]cyclopenta[h]azulen-10(2H)-one]"
250 nM,–,"CC1Cc2n[nH]c3ccnc(c23)N(C2CCOCC2)C1 (stereo not drawn) [Example 30, 8-methyl-6-(tetrahydro-2H-pyran-4-yl)-6,7,8,9-tetrahydro-2H-1,2,5,6-tetraazabenzo[cd]azulene]"
91 nM,–,"CN1CCC(N2CCCc3n[nH]c4ccnc2c34)CC1 [Example 26, 6-(1-methylpiperidin-4-yl)-6,7,8,9-tetrahydro-2H-1,2,5,6-tetraazabenzo[cd]azulene]"
20 nM,–,"4-cyclobutyl-4,11-dihydro-5H-3,4,10,11-tetraazadibenzo[cd,h]azulen-5-one [Example 37]"
23 nM,–,"Cn1cc2c(n1)CN(C1CCOCC1)c1nccc3[nH]nc-2c13 [Example 70, 2-methyl-9-(tetrahydro-2H-pyran-4-yl)-2,5,9,10-tetrahydro-1,2,4,5,8,9-hexaazabenzo[cd]cyclopenta[h]azulene]"
26 nM,–,"Cn1cc2c(n1)C(=O)N(C1CCOCC1)c1nccc3[nH]nc-2c13 [Example 66, 2-methyl-9-(tetrahydro-2H-pyran-4-yl)-5,9-dihydro-1,2,4,5,8,9-hexaazabenzo[cd]cyclopenta[h]azulen-10(2H)-one]"

Compound,IC50 [1],IC50 [2]
CC(C)N1CCC(N2Cc3ccccc3-c3n[nH]c4ccnc2c34)CC1 [Example 56],58 nM,4800 nM
c1ccc2c(c1)CN(C1CCCC1)c1nccc3[nH]nc-2c13 [Example 52],33 nM,–
"4-ethyl-5,11-dihydro-4H-3,4,10,11-tetraazadibenzo[cd,h]azulene [Example 46]",49 nM,1900 nM
"4-ethyl-4,11-dihydro-5H-3,4,10,11-tetraazadibenzo[cd,h]azulen-5-one [Example 32]",34 nM,–
"4-cyclobutyl-5,11-dihydro-4H-3,4,10,11-tetraazadibenzo[cd,h]azulene [Example 51]",39 nM,580 nM
CC(C)N1CCC(N2C(=O)c3ccccc3-c3n[nH]c4ccnc2c34)CC1 [Example 42],31 nM,–
"4-cyclopropyl-5,11-dihydro-4H-3,4,10,11-tetraazadibenzo[cd,h]azulene [Example 47]",54 nM,2200 nM
c1ccc(N2Cc3ccccc3-c3n[nH]c4ccnc2c34)cc1 [Example 53],33 nM,–
"4-isopropyl-4,11-dihydro-5H-3,4,10,11-tetraazadibenzo[cd,h]azulen-5-one [Example 35]",75 nM,–
"4-(sec-butyl)-5,11-dihydro-4H-3,4,10,11-tetraazadibenzo[cd,h]azulene [Example 50]",120 nM,–
"4-isopropyl-4,11-dihydro-5H-3,4,10,11-tetraazadibenzo[cd,h]azulen-5-one [Example 34]",41 nM,–
"4-isopropyl-5,11-dihydro-4H-3,4,10,11-tetraazadibenzo[cd,h]azulene [Example 48]",68 nM,550 nM
"2-(5,11-dihydro-4H-3,4,10,11-tetraazadibenzo[cd,h]azulen-4-yl)ethan-1-ol [Example 57]",260 nM,–
"4-(tetrahydro-2H-pyran-4-yl)-8-(trifluoromethyl)-5,11-dihydro-4H-3,4,7,10,11-pentaazadibenzo[cd,h]azulene [Example 89]",49 nM,23000 nM
"OCCN1CCCc2n[nH]c3ccnc1c23 [Example 28, 2-(2,7,8,9-tetrahydro-6H-1,2,5,6-tetraazabenzo[cd]azulen-6-yl)ethan-1-ol]",570 nM,–
"4-cyclopropyl-4,11-dihydro-5H-3,4,10,11-tetraazadibenzo[cd,h]azulen-5-one [Example 33]",30 nM,–
"4-isobutyl-5,11-dihydro-4H-3,4,10,11-tetraazadibenzo[cd,h]azulene [Example 49]",67 nM,–
